Publication PMC10914731, “Homo-BacPROTAC-induced degradation of ClpC1 as a strategy against drug-resistant mycobacteria” (Nature Communications, 2024)
Converted amounts (≈) assume the structure as drawn. “And” between values parts separate entries of the source, which are not always exact repeats. Equal values may be shown once. Read-outs that look alike come from different tables or passages of the source. *1 amine or outer side, *2 acyl side, *3 side chain or, on linkers, in order; H or OH if unused. Where a SMILES comes first, the peptide text is derived from it. [ ]: non-standard residue; d: D form. X1 = C#CCn1cc(C[C@H](N[*:1])C(=O)[*:2])c2ccccc21; NMeLeu(5-OH,4R) = CN[C@@H](C[C@@H](C)CO)C(=O)O; Phe(βR-OMe) = CO[C@H](c1ccccc1)[C@H](N)C(=O)O; NMeL = CN[C@@H](CC(C)C)C(=O)O

Experiments:
Mtb # 11291 = assay: microbe, parasite or virus in culture; assay type: cell-based; settings: for MIC: read-out: MIC Mtb # 11291
[1] = system: Mtb H37Rv in THP-1 macrophages; assay: Intracellular MIC assay in THP-1 macrophages; assay type: cell-based, Mycobacterium tuberculosis; parameters: Emax: unit not given here
[2] = target: ClpC1 NTD protein (M. tuberculosis) (Mycobacterium tuberculosis, UniProt P9WPC9); assay: biochemical; assay type: binding
Chain of ClpC1 NTD protein (M. tuberculosis) (P9WPC9 1-156, looked up, natural form): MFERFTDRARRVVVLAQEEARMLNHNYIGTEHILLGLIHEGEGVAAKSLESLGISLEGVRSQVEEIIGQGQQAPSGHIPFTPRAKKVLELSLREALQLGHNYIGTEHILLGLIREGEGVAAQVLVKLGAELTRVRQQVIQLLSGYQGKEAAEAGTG

Mycobacterium fortuitum = assay: microbe, parasite or virus in culture; assay type: cell-based
Acinetobacter baumannii = assay: MIC ESKAPES panel, Acinetobacter baumannii; assay type: cell-based
Procedure: Minimum inhibitory concentration (MIC) against ESKAPES panel of Gram positive and Gram negative pathogens (Enterococcus faecium, Staphylococcus aureus, Klebsiella pneumoniae, Acinetobacter baumannii, Pseudomonas aeruginosa, Enterobacter cloacae and Salmonella typhimurium [ESKAPES panel]) were determined at the FNDR by the standard broth dilution method [CLSI, M100]. […] Mueller Hinton broth (MHB) medium was used to grow ESKAPES panel strains. The individual cultures were added as 200 μL (inoculum of 3–7 × 10^5 cfu/ml) to the respective assay plates in each well to all columns, except the media control (200 μL of medium). […] The assay plates were incubated at 37 °C, and the results were noted on the 2nd day as turbidometric readout. The clear wells indicated inhibition of growth, while the turbid wells indicated uninhibited growth.

in vivo = assay type: in vivo, BALB/cAnNCrl mice
Procedure: The in-life experimental procedures were conducted in strict compliance with German and European animal welfare legislation in an AAALAC-accredited facility. Male BALB/cAnNCrl mice (Charles River Laboratories Research Models and Services, 97633 Sulzfeld, Germany) were used. Animals were 9 weeks old at dosing with a body weight of 21.6–24.3 g. Animals were delivered free of pathogens according to FELASA recommendations with a health certificate provided by the breeder. Upon receipt, the state of health and sex was checked. Animals acclimatized for at least 5 days before the commencement of the in-life phase. During acclimation, animals were group-housed in individually ventilated cages, on birch wood granulate bedding with species-specific enrichment (nesting material, mouse igloo, gnawing wood). During experimental conduct, animals were housed in conventional cages with elevated grid floors. Grid floor was used to avoid contamination with test item material excreted via urine and feces and subsequent reuptake during fur grooming. No bedding and enrichment were provided except a cage divider, which can be used as a shelter. Animals always had unlimited access to food and water and received a pelleted, total pathogen-free maintenance diet and tap drinking water, sterilized by filter.
On the day before dosing, test item(s) were suspended in kleptose (20% in WFI) under continuous stirring (3.0 mg/ml). Following 2 min vortexing and 1 h stirring, the formulation was sonicated at 60 °C for 30 min and stirred at ambient temperature overnight. Before dosing, the formulation was vortexed for 2 min followed by ultraturrax treatment for 2 min.
Male BALB/cAnNCrl mice (n = 3 per test item and administration route) received a bolus dose of the formulated test item(s) (1 mg/kg iv, 30 mg/kg po) at t = 0 h, and whole blood samples were collected subsequently (35 µl at 0.1 (iv) / 0.25 (po), 0.5, 1, 2, 4, 6 h; 600 µl at sacrifice after 24 h). Animals were euthanized by exsanguination in deep isoflurane anesthesia. Whole blood samples were immediately stored on ice at about 4 °C. Plasma was separated by centrifugation at approximately 10,000 × g for 5 m at +4 °C. Centrifugation of each blood sample was started within 10 m after collection. A single aliquot of at least 15 µL of plasma was prepared and immediately stored at −20 ± 5 °C.
Sample proteins were precipitated with ACN (1 + 12, v/v) containing internal standard, and supernatants analyzed by quantitative UPLC-MS/MS: Phenomenex Luna Omega C18, 2.1 × 50 mm, 1.6 µm, 40 °C, gradient between 10% - 90% ACN with 0.1% formic acid. LogD determination: Lipophilicity of the test items, expressed as chromLogD7.5, was assessed by measuring their chromatographic retention times on C18-material. The chromatographic retention versus logD7.5 values of a series of thirteen n-alkan-2-ones (2-butanone – 2-hexadecanone) served as lipophilicity calibration.

Mtb H37Rv = assay: Minimum bactericidal concentration (MBC), Mtb H37Rv; assay type: cell-based, Mycobacterium tuberculosis; settings: for MBC: Mycobacterium tuberculosis, H37RV
[3] = target: endogenous ClpC1 in Msm #607 cells (Mycolicibacterium smegmatis, UniProt A0R574); assay type: cell-based, M. smegmatis
Chain of endogenous ClpC1 in Msm #607 cells (A0R574 whole entry): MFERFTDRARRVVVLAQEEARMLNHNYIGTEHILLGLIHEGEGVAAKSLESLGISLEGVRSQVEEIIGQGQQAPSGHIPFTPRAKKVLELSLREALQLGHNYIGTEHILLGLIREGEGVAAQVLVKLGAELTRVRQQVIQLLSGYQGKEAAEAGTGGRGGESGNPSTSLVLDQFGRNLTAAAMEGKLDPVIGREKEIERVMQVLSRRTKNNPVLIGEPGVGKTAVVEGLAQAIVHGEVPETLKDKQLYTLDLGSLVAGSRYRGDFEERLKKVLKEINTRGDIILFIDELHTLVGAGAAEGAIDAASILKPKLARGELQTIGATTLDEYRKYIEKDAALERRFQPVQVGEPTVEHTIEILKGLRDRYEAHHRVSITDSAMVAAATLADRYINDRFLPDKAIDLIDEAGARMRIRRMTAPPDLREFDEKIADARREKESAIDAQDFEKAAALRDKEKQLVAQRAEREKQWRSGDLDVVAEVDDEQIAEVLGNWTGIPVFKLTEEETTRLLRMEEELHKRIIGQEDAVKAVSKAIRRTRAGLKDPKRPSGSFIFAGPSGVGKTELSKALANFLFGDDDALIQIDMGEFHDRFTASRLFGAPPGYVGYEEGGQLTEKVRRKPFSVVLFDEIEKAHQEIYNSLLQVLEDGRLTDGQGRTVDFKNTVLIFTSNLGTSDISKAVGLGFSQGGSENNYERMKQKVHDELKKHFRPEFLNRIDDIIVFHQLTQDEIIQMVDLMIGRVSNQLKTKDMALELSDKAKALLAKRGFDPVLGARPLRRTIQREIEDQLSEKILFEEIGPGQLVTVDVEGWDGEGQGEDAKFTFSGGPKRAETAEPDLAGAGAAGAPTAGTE

[4] = single well replicates, listed as 12 (UdSBI-4377)
[5] = SPR, read-out: ClpC1-NTD KD Mean ± SD
[6] = Experiment 2, three replicate columns
[7] = Experiment 2, three replicate columns, read-out: MIC (µM) Mycobacterium fortuitum
[8] = Mycolicibacterium fortuitum, Experiment 1, read-out: MIC Mycobacterium fortuitum
[9] = Mycolicibacterium fortuitum, Experiment 2, three replicate columns, read-out: MIC (µM) Mycobacterium fortuitum
[10] = Mycolicibacterium fortuitum, Experiment 2, three replicate columns, read-out: MIC (µg/ml) Mycobacterium fortuitum
[11] = Mycolicibacterium fortuitum, mean ± SD, read-out: MIC Mycobacterium fortuitum
[12] = Gram negative, n = 3 well replicates, read-out: MIC Acinetobacter baumanii
[13] = Gram-Negative Bacteria, replicates 1-3, read-out: MIC Acinetobacter baumannii
[14] = male, BALB/cAnNCrl, mouse, in vivo, po
[15] = read-out: MBC (from Set 3) Mtb H37Rv
[16] = oral gavage 30 mg/kg, mice, Mean, BLOQ <1.00 nmol/L
[17] = oral gavage, individual animals 1-3
[18] = oral gavage, individual animals 1-3, BLOQ <1.00 nmol/L

Structure (SMILES): COC(c1ccccc1)C1NC(=O)C(C)NC(=O)C(CC(C)CO)N(C)C(=O)C(Cc2cn(C)c3ccccc23)NC(=O)C(Cc2cn(CCCCCn3cc(CC4NC(=O)C(CC(C)C)N(C)C(=O)C(C(C)C)NC(=O)C(C(OC)c5ccccc5)NC(=O)C(C)NC(=O)C(CC(C)CO)N(C)C(=O)C(Cc5cn(C)c6ccccc56)NC4=O)nn3)nn2)NC(=O)C(CC(C)C)N(C)C(=O)C(C(C)C)NC1=O (stereo not shown) [Compound 12]
- MIC (Mtb # 11291; Mycobacterium tuberculosis, mean, n = 2 well replicates): < 0.1 µM and < 0.2 µg/mL
- MIC (Mtb # 11291; Mycobacterium tuberculosis, single well replicates): < 0.1 µM and < 0.19 µg/mL
- MIC Mtb # 11291 (Mtb # 11291; [4]): <0.19 µg/mL
- MIC (Mtb # 11291; [4]): <0.1 µM
- Emax [1]: 0.28
- Kd ([2]; SPR, individual measurements (source data), listed as 12 (UdSBI-4377), read-out: KD ClpC1-NTD): 0.169 nM and 0.284 nM and 0.283 nM and 0.407 nM and 0.412 nM and 0.327 nM and 0.181 nM and 0.203 nM and 0.279 nM
- Kd [2, 5]: 0.28 ± 0.08 nM
- improvement of SPR KD to ClpC1-NTD, dimer versus monomer (factor) ([2]; monomeric 10 to dimeric 12 / Homo-BacPROTACs versus monomeric compounds): 10
- MIC (Mycobacterium fortuitum; Experiment 1, listed as 12 (UdSBI-4377), read-out: MIC Mycobacterium fortuitum): >50 µM
- MIC (µg/ml) Mycobacterium fortuitum (Mycobacterium fortuitum; [6]): >99.02 µg/mL
- MIC (Mycobacterium fortuitum; [7]): >50 µM
- MIC (Mycobacterium fortuitum; [8]): > 99 µg/mL
- MIC (Mycobacterium fortuitum; [9]): > 50 µM
- MIC (Mycobacterium fortuitum; [10]): > 99 µg/mL
- MIC (Mycobacterium fortuitum; [11]): > 50 µM
- MIC (Acinetobacter baumannii; [12]): > 50 µM
- MIC (Acinetobacter baumannii; [13]): > 50 µM and > 99 µg/mL
- AUC0-inf/Dose (in vivo; [14]): 62.6 h*nM/nmol/kg
- AUC0-t/Dose (in vivo; [14]): 45.5 h*nM/nmol/kg
- BA (in vivo; [14]): 0.7%
- Cmax/Dose (in vivo; [14]): 2.56 nM/nmol/kg
- colony growth after replating (MBC assay) (Mtb H37Rv): did not form any colonies at concentrations at or above the MIC value
- MBC (Mtb H37Rv; [15]): 0.1 µM and 0.2 µg/mL
- MBC (Mtb H37Rv; read-out: MBC Mtb H37Rv): 0.1 µM and 0.2 µg/mL
- DC50 ([3]; read-out: DC50, Mean): 170 nM
- DC50 ([3]; read-out: average DC50, endogenous ClpC1 degradation): 170 ± 100 nM

Structure (SMILES): C#CCn1cc(C[C@@H]2NC(=O)[C@H](C(C)C)NC(=O)[C@H](CC(C)C)N(C)C(=O)[C@H](C(C)C)NC(=O)[C@H]([C@H](OC)c3ccccc3)NC(=O)[C@H](C)NC(=O)[C@H](C[C@@H](C)CO)N(C)C2=O)c2ccccc21 [Compound 5] (cyclo(A[Phe(βR-OMe)]V[NMeL]V[X1][NMeLeu(5-OH,4R)]))
- MIC Mtb # 11291 (Mtb # 11291; single well replicates): 0.18 µg/mL (≈ 0.191 µM)
- MIC (Mtb # 11291; single well replicates): 0.19 µM (≈ 0.179 µg/mL)
- Emax [1]: 1.14
- intracellular viable mycobacteria ([1]; 0.195µM, Day 4, well replicates): 5.51 log10 cfu/ml
- intracellular viable mycobacteria ([1]; 0.195µM, Day 7, well replicates): 5.68 log10 cfu/ml
- intracellular viable mycobacteria ([1]; 0.781µM, Day 4, well replicates): 4.46 log10 cfu/ml and 4.51 log10 cfu/ml
- intracellular viable mycobacteria ([1]; 3.125µM, Day 4, well replicates): 4.19 log10 cfu/ml and 4.2 log10 cfu/ml
- intracellular viable mycobacteria ([1]; 3.125µM, Day 7, well replicates): 4.96 log10 cfu/ml
- Kd ([2]; SPR, individual measurements (source data), read-out: KD ClpC1-NTD): 3.63 nM and 3.45 nM
- koff ClpC1-NTD ([2]; SPR, single independent measurements): 0.04 s⁻¹
- koff ([2]; SPR, single independent measurements, read-out: koff ClpC1-NTD): 0.02 s⁻¹
- Kd [2, 5]: 3.5 ± 0.1 nM
- MIC (Mycobacterium fortuitum; Experiment 1, read-out: MIC Mycobacterium fortuitum): 6.3 µM
- MIC (µg/ml) Mycobacterium fortuitum (Mycobacterium fortuitum; [6]): 5.88 µg/mL (≈ 6.25 µM)
- MIC (Mycobacterium fortuitum; [7]): 6.25 µM
- MIC (Mycobacterium fortuitum; [8]): 5.9 µg/mL
- MIC (Mycobacterium fortuitum; [9]): 6.25 µM
- MIC (Mycobacterium fortuitum; [10]): 5.88 µg/mL
- MIC (Mycobacterium fortuitum; [11]): 6.3 µM
- MIC (Acinetobacter baumannii; [12]): > 50 µM
- MIC (Acinetobacter baumannii; [13]): > 50 µM and > 47 µg/mL
- half-life (in vivo; male, BALB/cAnNCrl, mouse, in vivo, po, […], oral gavage, individual animals 1-3): 36.5 min
- tmax (in vivo; male, BALB/cAnNCrl, mouse, in vivo, po, […], oral gavage, individual animals 1-3, read-out: tmax): 60 min
- half-life (in vivo; male, BALB/cAnNCrl, mouse, in vivo, po, […], oral gavage, mice, Mean): 34.7 min
- tmax (in vivo; male, BALB/cAnNCrl, mouse, in vivo, po, […], oral gavage, mice, Mean, read-out: tmax): 100 min
- Plasma concentration 24 h (in vivo; mouse, in vivo, po): BLOQ
- Plasma concentration 0.5 h (in vivo; [16]): 11.7 nM
- Plasma concentration 1 h (in vivo; [16]): 15.5 nM
- Plasma concentration 2 h (in vivo; [16]): 18.0 nM
- Plasma concentration 4 h (in vivo; [16]): 1.62 nM
- Plasma concentration 6 h (in vivo; [16]): 1.76 nM
- Plasma concentration 24 h (in vivo; [16]): 4.22 nM
- Plasma concentration […] (in vivo; [16]): 12.2 nM
- AUC0-inf/Dose (in vivo; [17]): 3.14 h*nM/nmol/kg and 1.57 h*nM/nmol/kg and 1.80 h*nM/nmol/kg
- AUC0-t/Dose (in vivo; [17]): 3.02 h*nM/nmol/kg and 1.53 h*nM/nmol/kg and 1.74 h*nM/nmol/kg
- Cmax/Dose (in vivo; [17]): 0.480 nM/nmol/kg and 0.558 nM/nmol/kg and 0.684 nM/nmol/kg
- t1/2 (in vivo; [17]): 34.6 min and 33.1 min
- tmax (in vivo; [17]): 120 min
- Plasma concentration 0.5 h (in vivo; [18]): 13.0 nM and 10.7 nM and 11.4 nM
- Plasma concentration 1 h (in vivo; [18]): 15.3 nM and 15.7 nM and 15.5 nM
- Plasma concentration 2 h (in vivo; [18]): 14.5 nM and 17.8 nM and 21.8 nM
- Plasma concentration 4 h (in vivo; [18]): 1.49 nM and 1.61 nM and 1.76 nM
- Plasma concentration 6 h (in vivo; [18]): 1.54 nM and 1.59 nM and 2.14 nM
- Plasma concentration 24 h (in vivo; [18]): 4.22 nM
- Plasma concentration […] (in vivo; [18]): 14.2 nM and 11.7 nM and 10.6 nM
- BA (in vivo; oral gavage, mice (compound 12: from Animal 2 only; compound 6: maximum potential value)): 1.2%
- AUC0-inf/Dose (in vivo; oral gavage, mice, Mean): 2.17 h*nM/nmol/kg
- Cmax/Dose (in vivo; oral gavage, mice, Mean): 0.574 nM/nmol/kg
- AUC0-t/Dose (in vivo; oral gavage, mice, Mean (compound 6: maximum potential value with 1 nM for each time point)): 2.10 h*nM/nmol/kg
- MBC (Mtb H37Rv; [15]): 6.25 µM and 5.88 µg/mL
- MBC (Mtb H37Rv; individual example, read-out: MBC Mtb H37Rv): 6.3 µM and 5.9 µg/mL
- ClpC1 peak area ([3]; 100 µM, Figure 5c, well replicates of 3 experiments): 296040 and 308121 and 346162 and 550976 and 476988 and 428795 and 417149 and 443522 and 406576
- intracellular degradation of ClpC1 ([3]; Msm #607, 24 h, result in words): did not induce degradation of ClpC1
